Measured values reported in ChEMBL document CHEMBL3044859, “Antimicrobial activity of Schiff bases of coumarin-incorporated 1,3,4-oxadiazole derivatives: an in vitro evaluation” (2013).

Legend:
Assay type in all cases: functional
Staphylococcus aureus [1] = assay: Antibacterial activity against Staphylococcus aureus […] at 100 ug/ml by cup-plate method; details: read-out: DIZ
Escherichia coli = assay: Antibacterial activity against Escherichia coli […] at 100 ug/ml by cup-plate method; details: read-out: DIZ
Staphylococcus aureus [2] = assay: Growth inhibition of Staphylococcus aureus […] at 100 ug/ml by cup-plate method relative to control; details: read-out: GI
Candida albicans [3] = assay: Antifungal activity against Candida albicans ATCC 10231 at 100 ug/ml by cup-plate method; details: read-out: DIZ
Candida albicans [4] = assay: Growth inhibition of Candida albicans ATCC 10231 at 100 ug/ml by cup-plate method relative to control; details: read-out: GI

Structure (SMILES)	zone of inhibition at 100 µg/mL (Staphylococcus aureus [1]) [mm]	zone of inhibition at 100 µg/mL (Escherichia coli) [mm]	inhibition of growth at 100 µg/mL (Staphylococcus aureus [2]) [%]	zone of inhibition at 100 µg/mL (Candida albicans [3]) [mm]	inhibition of growth at 100 µg/mL (Candida albicans [4]) [%]
NNC(=O)c1cc2ccccc2oc1=O	10	9	40	8	40
COc1ccccc1/C=N/c1nnc(-c2cc3ccccc3oc2=O)o1	14	15	56	13	65
COc1cccc(/C=N/c2nnc(-c3cc4ccccc4oc3=O)o2)c1	14	15	56	14	70
O=c1oc2ccccc2cc1-c1nnc(/N=C/c2ccccc2F)o1	12	10	48	13	65
O=c1oc2ccccc2cc1-c1nnc(/N=C/c2ccc([N+](=O)[O-])cc2)o1	17	12	64	–	–
O=c1oc2ccccc2cc1-c1nnc(/N=C/c2cccc(F)c2)o1	12	10	48	11	55
O=c1oc2ccccc2cc1-c1nnc(/N=C/c2ccccc2)o1	20	20	80	12	60
O=c1oc2ccccc2cc1-c1nnc(/N=C/c2cccc(Cl)c2)o1	–	17	–	14	70
O=c1oc2ccccc2cc1-c1nnc(/N=C/c2ccc(Cl)cc2)o1	–	17	–	15	75
O=c1oc2ccccc2cc1-c1nnc(/N=C/c2ccccc2Cl)o1	–	17	–	13	65
O=c1oc2ccccc2cc1-c1nnc(/N=C/c2ccc(F)cc2)o1	12	15	48	10	50
COc1ccc(/C=N/c2nnc(-c3cc4ccccc4oc3=O)o2)cc1	14	10	56	12	60
CN(C)c1ccc(/C=N/c2nnc(-c3cc4ccccc4oc3=O)o2)cc1	12	12	48	16	80
O=c1oc2ccccc2cc1-c1nnc(/N=C/c2ccccc2[N+](=O)[O-])o1	17	14	64	–	–
O=c1oc2ccccc2cc1-c1nnc(/N=C/c2cccc(O)c2)o1	10	15	40	11	55
O=c1oc2ccccc2cc1-c1nnc(/N=C/c2ccccc2O)o1	10	12	40	10	50
COc1ccc(/C=N/c2nnc(-c3cc4ccccc4oc3=O)o2)cc1OC	12	10	48	10	50
O=c1oc2ccccc2cc1-c1nnc(/N=C/c2ccc(O)cc2)o1	10	10	40	9	45
O=c1oc2ccccc2cc1-c1nnc(/N=C/c2cccc([N+](=O)[O-])c2)o1	17	12	64	–	–
O=C(O)c1cn(C2CC2)c2cc(N3CCNCC3)c(F)cc2c1=O [CIPROFLOXACIN]	25	–	100	–	–
CC(=O)N1CCN(c2ccc(OCC3COC(Cn4ccnc4)(c4ccc(Cl)cc4Cl)O3)cc2)CC1 (configuration not stated) [KETOCONAZOLE]	–	–	–	20	100
